Results as given in the NIST ThermoML archive (doi:10.1021/je700699u).

Experiment: cn = amount concentration of the nth substance listed, in mol/dm3
Settings: 101 kPa, Liquid

N[C@@H](CC(=O)O)C(=O)[O-].[K+] [potassium (S)-2-amino-3-carboxypropanoate] + O
Settings | mass density, 298.15 K [kg/m3] | mass density, 303.15 K [kg/m3] | mass density, 313.15 K [kg/m3] | mass density, 323.15 K [kg/m3] | mass density, 333.15 K [kg/m3] | viscosity, 298.15 K [mPa·s] | viscosity, 303.15 K [mPa·s] | viscosity, 313.15 K [mPa·s] | viscosity, 323.15 K [mPa·s] | viscosity, 333.15 K [mPa·s]
c1 = 0.255 | 1029 | 1027 | 1024 | 1020 | 1015 | 0.992 | 0.887 | 0.725 | 0.613 | 0.525
c1 = 0.47 | 1059 | 1057 | 1053 | 1049 | 1045 | 1.104 | 0.998 | 0.816 | 0.693 | 0.593
c1 = 0.708 | 1089 | 1087 | 1083 | 1079 | 1074 | 1.239 | 1.115 | 0.914 | 0.771 | 0.663
c1 = 0.979 | 1119 | 1117 | 1113 | 1109 | 1105 | 1.419 | 1.269 | 1.041 | 0.865 | 0.743
c1 = 1.208 | 1147 | 1145 | 1141 | 1137 | 1133 | 1.615 | 1.45 | 1.185 | 0.994 | 0.836
c1 = 1.449 | 1176 | 1173 | 1169 | 1166 | 1162 | 1.856 | 1.667 | 1.353 | 1.142 | 0.957

NCCCCCC(=O)[O-].[K+] [potassium Salt of 6-aminohexanoic acid] + O
Settings | mass density, 298.15 K [kg/m3] | mass density, 303.15 K [kg/m3] | mass density, 313.15 K [kg/m3] | mass density, 323.15 K [kg/m3] | mass density, 333.15 K [kg/m3] | viscosity, 298.15 K [mPa·s] | viscosity, 303.15 K [mPa·s] | viscosity, 313.15 K [mPa·s] | viscosity, 323.15 K [mPa·s] | viscosity, 333.15 K [mPa·s]
c1 = 0.497 | 1024 | 1022 | 1018 | 1014 | 1009 | 1.191 | 1.058 | 0.854 | 0.706 | 0.599
c1 = 1.002 | 1049 | 1048 | 1044 | 1038 | 1034 | 1.608 | 1.418 | 1.126 | 0.913 | 0.762
c1 = 1.429 | 1072 | 1070 | 1067 | 1061 | 1057 | 2.152 | 1.882 | 1.497 | 1.199 | 0.987
c1 = 1.982 | 1098 | 1095 | 1089 | 1084 | 1078 | 3.091 | 2.669 | 2.035 | 1.608 | 1.307
c1 = 2.458 | 1119 | 1117 | 1111 | 1105 | 1098 | 4.445 | 3.796 | 2.85 | 2.211 | 1.768
c1 = 2.942 | 1141 | 1139 | 1132 | 1126 | 1118 | 6.601 | 5.573 | 4.112 | 3.145 | 2.458

N=C(N)NCCC[C@H](N)C(=O)[O-].[K+] [potassium L-argininate] + O
Settings | mass density, 298.15 K [kg/m3] | mass density, 303.15 K [kg/m3] | mass density, 313.15 K [kg/m3] | mass density, 323.15 K [kg/m3] | mass density, 333.15 K [kg/m3] | viscosity, 298.15 K [mPa·s] | viscosity, 303.15 K [mPa·s] | viscosity, 313.15 K [mPa·s] | viscosity, 323.15 K [mPa·s] | viscosity, 333.15 K [mPa·s]
c1 = 0.238 | 1021 | 1019 | 1016 | 1011 | 1007 | 1.026 | 0.917 | 0.75 | 0.63 | 0.539
c1 = 0.479 | 1043 | 1041 | 1037 | 1032 | 1027 | 1.215 | 1.098 | 0.886 | 0.738 | 0.632
c1 = 0.725 | 1064 | 1062 | 1058 | 1053 | 1048 | 1.431 | 1.276 | 1.035 | 0.856 | 0.723
c1 = 0.971 | 1087 | 1085 | 1080 | 1075 | 1069 | 1.882 | 1.553 | 1.244 | 1.019 | 0.848

CNCC(=O)[O-].[K+] [potassium Salt of sarcosine] + O
Settings | mass density, 298.15 K [kg/m3] | mass density, 303.15 K [kg/m3] | mass density, 313.15 K [kg/m3] | mass density, 323.15 K [kg/m3] | mass density, 333.15 K [kg/m3] | viscosity, 298.15 K [mPa·s] | viscosity, 303.15 K [mPa·s] | viscosity, 313.15 K [mPa·s] | viscosity, 323.15 K [mPa·s] | viscosity, 333.15 K [mPa·s]
c1 = 0.51 | 1024 | 1023 | 1019 | 1015 | 1010 | 1.018 | 0.913 | 0.748 | 0.627 | 0.538
c1 = 1.01 | 1051 | 1049 | 1045 | 1041 | 1036 | – | – | – | – | –
c1 = 1.019 | – | – | – | – | – | 1.185 | 1.06 | 0.876 | 0.759 | 0.614
c1 = 1.534 | 1077 | 1074 | 1070 | 1065 | 1060 | 1.408 | 1.252 | 1.005 | 0.833 | 0.703
c1 = 2.019 | 1103 | 1100 | 1096 | 1091 | 1085 | 1.663 | 1.466 | 1.18 | 0.968 | 0.811
c1 = 2.445 | 1124 | 1121 | 1117 | 1111 | 1106 | 1.959 | 1.707 | 1.356 | 1.098 | 0.919
c1 = 2.987 | 1150 | 1148 | 1143 | 1138 | 1132 | 2.493 | 2.185 | 1.721 | 1.395 | 1.115

NCCC(=O)[O-].[K+] [potassium Salt of B-alanine] + O
Settings | mass density, 298.15 K [kg/m3] | mass density, 303.15 K [kg/m3] | mass density, 313.15 K [kg/m3] | mass density, 323.15 K [kg/m3] | mass density, 333.15 K [kg/m3] | viscosity, 298.15 K [mPa·s] | viscosity, 303.15 K [mPa·s] | viscosity, 313.15 K [mPa·s] | viscosity, 323.15 K [mPa·s] | viscosity, 333.15 K [mPa·s]
c1 = 0.496 | 1026 | 1024 | 1020 | 1017 | 1011 | 1.05 | 0.944 | 0.762 | 0.638 | 0.546
c1 = 1.003 | 1053 | 1053 | 1048 | 1043 | 1038 | 1.23 | 1.097 | 0.892 | 0.744 | 0.634
c1 = 1.492 | 1079 | 1078 | 1074 | 1070 | 1065 | 1.453 | 1.293 | 1.049 | 0.871 | 0.737
c1 = 2.019 | 1107 | 1106 | 1100 | 1096 | 1090 | 1.759 | 1.548 | 1.25 | 1.027 | 0.866
c1 = 2.492 | 1133 | 1131 | 1126 | 1121 | 1116 | 2.131 | 1.881 | 1.497 | 1.223 | 1.022
c1 = 2.964 | 1157 | 1155 | 1150 | 1145 | 1140 | 2.609 | 2.293 | 1.808 | 1.464 | 1.217
c1 = 3.417 | 1181 | 1179 | 1174 | 1169 | 1162 | 3.245 | 2.832 | 2.209 | 1.77 | 1.459

N[C@@H](CCC(=O)O)C(=O)[O-].[K+] [potassium (S)-2-amino-4-carboxybutanoate] + O
Settings | mass density, 298.15 K [kg/m3] | mass density, 303.15 K [kg/m3] | mass density, 313.15 K [kg/m3] | mass density, 323.15 K [kg/m3] | mass density, 333.15 K [kg/m3] | viscosity, 298.15 K [mPa·s] | viscosity, 303.15 K [mPa·s] | viscosity, 313.15 K [mPa·s] | viscosity, 323.15 K [mPa·s] | viscosity, 333.15 K [mPa·s]
c1 = 0.248 | 1029 | 1027 | 1024 | 1019 | 1017 | 1.011 | 0.908 | 0.744 | 0.623 | 0.535
c1 = 0.493 | 1059 | 1057 | 1054 | 1049 | 1047 | 1.163 | 1.041 | 0.854 | 0.713 | 0.611
c1 = 0.733 | 1088 | 1086 | 1083 | 1078 | 1076 | 1.344 | 1.199 | 0.982 | 0.817 | 0.699
c1 = 1 | 1117 | 1116 | 1112 | 1107 | 1105 | 1.579 | 1.404 | 1.143 | 0.953 | 0.809
c1 = 1.24 | 1145 | 1143 | 1139 | 1134 | 1132 | 1.844 | 1.644 | 1.336 | 1.101 | 0.933
c1 = 1.469 | 1173 | 1171 | 1167 | 1162 | 1160 | 2.194 | 1.962 | 1.57 | 1.295 | 1.089

O=C([O-])[C@@H]1CCCN1.[K+] [potassium L-prolinate] + O
Settings | mass density, 298.15 K [kg/m3] | mass density, 303.15 K [kg/m3] | mass density, 313.15 K [kg/m3] | mass density, 323.15 K [kg/m3] | mass density, 333.15 K [kg/m3] | viscosity, 298.15 K [mPa·s] | viscosity, 303.15 K [mPa·s] | viscosity, 313.15 K [mPa·s] | viscosity, 323.15 K [mPa·s] | viscosity, 333.15 K [mPa·s]
c1 = 0.507 | 1028 | 1027 | 1023 | 1019 | 1014 | 1.107 | 0.986 | 0.799 | 0.664 | 0.565
c1 = 1.01 | 1059 | 1057 | 1053 | 1048 | 1043 | 1.4 | 1.242 | 0.992 | 0.816 | 0.685
c1 = 1.523 | 1089 | 1087 | 1082 | 1077 | 1072 | 1.811 | 1.59 | 1.251 | 1.017 | 0.846
c1 = 2.01 | 1118 | 1115 | 1110 | 1105 | 1100 | 2.365 | 2.061 | 1.599 | 1.286 | 1.061
c1 = 2.521 | 1146 | 1144 | 1138 | 1133 | 1127 | 3.163 | 2.721 | 2.076 | 1.636 | 1.331
c1 = 2.983 | 1171 | 1168 | 1162 | 1156 | 1150 | 4.112 | 3.516 | 2.664 | 2.068 | 1.658
c1 = 3.448 | 1197 | 1194 | 1188 | 1182 | 1176 | 5.732 | 4.837 | 3.587 | 2.767 | 2.181
